Results reported in ChEMBL document CHEMBL1759841, “8-Hydroxynaphthalene-1,4-dione derivative as novel compound for glioma treatment” (Bioorg Med Chem Lett, 2011).
pIC50: −log10 of the molar value.

Tests used:
[1] = Inhibition of CK1
[2] = Inhibition of CK2
[3] = biological target: T1, Aurora kinase A (Homo sapiens, UniProt O14965); test: Inhibition of Aurora A
T1 sequence (O14965 whole entry): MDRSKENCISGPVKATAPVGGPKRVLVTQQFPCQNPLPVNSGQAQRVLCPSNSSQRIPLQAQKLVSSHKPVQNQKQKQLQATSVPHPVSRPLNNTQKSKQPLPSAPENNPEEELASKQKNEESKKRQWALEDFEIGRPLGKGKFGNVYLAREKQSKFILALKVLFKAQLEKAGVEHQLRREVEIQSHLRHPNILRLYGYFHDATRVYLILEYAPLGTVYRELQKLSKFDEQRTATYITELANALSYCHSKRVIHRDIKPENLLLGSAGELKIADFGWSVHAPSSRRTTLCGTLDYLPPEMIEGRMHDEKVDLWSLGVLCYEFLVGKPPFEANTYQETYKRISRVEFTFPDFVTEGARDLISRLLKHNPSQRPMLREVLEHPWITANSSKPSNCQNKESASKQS

[4] = biological target: Dual specificity tyrosine-phosphorylation-regulated kinase 1A (Homo sapiens, UniProt Q13627); test: Inhibition of DYRK1a
[5] = Inhibition of PKA

Molecule Cc1ccc(S(=O)(=O)Oc2ccc3ccc(O)cc3c2)cc1 has a pIC50 [1] of less than 4.40 and a pIC50 [2] of less than 4.40.

With CC1c2cc(Br)c(O)c(Br)c2OC(=O)C1Br (stereo unspecified) the pIC50 [1] was less than 4.40 and the pIC50 [2] was 5.70.

Molecule O=C1NC(=O)C(=Cc2ccc(O)cc2O)C(=O)N1 has a pIC50 [1] of less than 4.40 and a pIC50 [2] of less than 4.40.

Molecule O=C1C=C(c2ccc(O)c(O)c2O)C(=O)c2c(O)ccc(O)c21 has a pIC50 [1] of less than 4.40, a pIC50 [3] of 5.21 and a pIC50 [2] of 5.46. For the same molecule, the pIC50 [4] was 4.67.

With C[N+]1(Cc2cc(O)c3c(c2)C(=O)c2cccc(O)c2C3=O)CCOCC1 the pIC50 [1] was 5.00 and the pIC50 [2] was less than 4.40.

Molecule C[N+](C)(C)CC(=O)OCc1cc(O)c2c(c1)C(=O)c1cccc(O)c1C2=O has a pIC50 [1] of less than 4.40 and a pIC50 [2] of less than 4.40.

Molecule CCN(CC)CCC(=O)Nc1ccc(O)c2c1C(=O)c1cccc(O)c1C2=O has a pIC50 [1] of less than 4.40 and a pIC50 [2] of less than 4.40.

With O=C1C=C(c2ccc(O)c(O)c2O)C(=O)c2c1cccc2[N+](=O)[O-] the pIC50 [1] was less than 4.40, the pIC50 [3] was 5.32 and the pIC50 [2] was 4.64. The pIC50 [5] was 4.85.

O=c1ccc2cc(S(=O)(=O)N3CCNCC3)cc(Cl)c2o1 gave a pIC50 [1] of less than 4.40 and a pIC50 [2] of less than 4.40.

With Cc1coc2cc3oc(=O)c(NC(=O)CN)cc3cc12 the pIC50 [1] was less than 4.40 and the pIC50 [2] was less than 4.40.

CN(C)c1ccc(C=C2C(=O)NC(=O)NC2=O)cc1 showed a pIC50 [1] of less than 4.40 and a pIC50 [2] of less than 4.40.
